Results on 5 molecules are retold here after ChEMBL document CHEMBL3991601, “The target landscape of clinical kinase drugs” (Science, 2017).

Calls of active or inactive are those of the source. Cut-off read from the data, not from the text of the source, for most assays here: actives have a measured Kd and inactives only a lower limit.

For assay [1], the target named is AP2-associated protein kinase 1 (Homo sapiens, UniProt Q2M2I8).
In assay [2] the target is Calcium/calmodulin-dependent protein kinase type II subunit gamma (Homo sapiens, UniProt Q13555).
In another assay the target is T1, Ephrin type-B receptor 6 (Homo sapiens, UniProt O15197).
T1 sequence (O15197 whole entry): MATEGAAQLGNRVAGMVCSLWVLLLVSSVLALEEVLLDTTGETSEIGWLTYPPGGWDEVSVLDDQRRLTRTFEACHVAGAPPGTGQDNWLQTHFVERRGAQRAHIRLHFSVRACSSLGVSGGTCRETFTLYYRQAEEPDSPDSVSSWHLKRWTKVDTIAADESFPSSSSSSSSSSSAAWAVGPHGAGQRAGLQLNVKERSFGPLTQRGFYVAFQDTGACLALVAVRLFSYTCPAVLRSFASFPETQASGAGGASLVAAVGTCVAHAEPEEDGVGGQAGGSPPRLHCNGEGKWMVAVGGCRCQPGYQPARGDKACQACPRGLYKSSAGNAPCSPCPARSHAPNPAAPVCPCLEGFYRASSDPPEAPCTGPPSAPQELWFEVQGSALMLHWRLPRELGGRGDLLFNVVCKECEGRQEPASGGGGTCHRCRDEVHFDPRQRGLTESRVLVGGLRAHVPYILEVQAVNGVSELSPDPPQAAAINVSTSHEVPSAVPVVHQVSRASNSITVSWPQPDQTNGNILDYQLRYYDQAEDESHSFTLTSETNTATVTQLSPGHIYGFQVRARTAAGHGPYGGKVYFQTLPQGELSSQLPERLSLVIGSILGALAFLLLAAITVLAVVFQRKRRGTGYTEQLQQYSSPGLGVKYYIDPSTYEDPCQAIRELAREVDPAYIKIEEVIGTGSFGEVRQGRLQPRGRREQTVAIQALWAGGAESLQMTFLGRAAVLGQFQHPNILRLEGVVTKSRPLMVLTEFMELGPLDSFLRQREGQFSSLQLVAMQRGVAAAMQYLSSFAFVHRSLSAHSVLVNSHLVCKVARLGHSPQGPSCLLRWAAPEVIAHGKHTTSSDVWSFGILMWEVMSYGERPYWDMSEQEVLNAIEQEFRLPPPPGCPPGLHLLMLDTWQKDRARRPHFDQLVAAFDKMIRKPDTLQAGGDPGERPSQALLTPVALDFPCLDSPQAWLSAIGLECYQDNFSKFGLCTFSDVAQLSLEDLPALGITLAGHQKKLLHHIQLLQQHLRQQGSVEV

In assay [3] the target is T2, Phenylalanine--tRNA ligase beta subunit (Homo sapiens, UniProt Q9NSD9).
T2 sequence (Q9NSD9 whole entry): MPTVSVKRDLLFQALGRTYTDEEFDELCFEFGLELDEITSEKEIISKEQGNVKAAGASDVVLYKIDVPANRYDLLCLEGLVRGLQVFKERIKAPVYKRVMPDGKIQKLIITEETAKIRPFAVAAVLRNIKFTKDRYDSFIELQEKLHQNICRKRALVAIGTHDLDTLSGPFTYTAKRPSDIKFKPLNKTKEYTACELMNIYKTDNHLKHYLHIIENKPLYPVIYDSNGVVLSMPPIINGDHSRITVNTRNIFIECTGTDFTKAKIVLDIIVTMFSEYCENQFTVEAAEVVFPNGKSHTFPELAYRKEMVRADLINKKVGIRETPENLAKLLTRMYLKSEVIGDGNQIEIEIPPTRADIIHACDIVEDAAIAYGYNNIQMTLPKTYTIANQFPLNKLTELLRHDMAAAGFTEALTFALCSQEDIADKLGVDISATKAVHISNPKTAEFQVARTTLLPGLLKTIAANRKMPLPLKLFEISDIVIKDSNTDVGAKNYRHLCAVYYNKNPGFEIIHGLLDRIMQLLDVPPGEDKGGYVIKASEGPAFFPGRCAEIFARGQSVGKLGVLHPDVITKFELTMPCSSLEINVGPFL

For assay [4], the target named is Tyrosine-protein kinase Fer (Homo sapiens, UniProt P16591).
A further assay concerns the target LIM domain kinase 1 (Homo sapiens, UniProt P53667).
Assay [5] addresses Serine/threonine-protein kinase N1 (Homo sapiens, UniProt Q16512).
Assay [6] addresses Serine/threonine-protein kinase N2 (Homo sapiens, UniProt Q16513).
Assay [7] concerns the target 5'-AMP-activated protein kinase catalytic subunit alpha-1 (Homo sapiens, UniProt Q13131).
Assay [8] concerns the target Tyrosine-protein kinase SYK (Homo sapiens, UniProt P43405).
Assay [9] deals with T3, General transcription and DNA repair factor IIH helicase subunit XPD (Homo sapiens, UniProt P18074).
T3 sequence (P18074 whole entry): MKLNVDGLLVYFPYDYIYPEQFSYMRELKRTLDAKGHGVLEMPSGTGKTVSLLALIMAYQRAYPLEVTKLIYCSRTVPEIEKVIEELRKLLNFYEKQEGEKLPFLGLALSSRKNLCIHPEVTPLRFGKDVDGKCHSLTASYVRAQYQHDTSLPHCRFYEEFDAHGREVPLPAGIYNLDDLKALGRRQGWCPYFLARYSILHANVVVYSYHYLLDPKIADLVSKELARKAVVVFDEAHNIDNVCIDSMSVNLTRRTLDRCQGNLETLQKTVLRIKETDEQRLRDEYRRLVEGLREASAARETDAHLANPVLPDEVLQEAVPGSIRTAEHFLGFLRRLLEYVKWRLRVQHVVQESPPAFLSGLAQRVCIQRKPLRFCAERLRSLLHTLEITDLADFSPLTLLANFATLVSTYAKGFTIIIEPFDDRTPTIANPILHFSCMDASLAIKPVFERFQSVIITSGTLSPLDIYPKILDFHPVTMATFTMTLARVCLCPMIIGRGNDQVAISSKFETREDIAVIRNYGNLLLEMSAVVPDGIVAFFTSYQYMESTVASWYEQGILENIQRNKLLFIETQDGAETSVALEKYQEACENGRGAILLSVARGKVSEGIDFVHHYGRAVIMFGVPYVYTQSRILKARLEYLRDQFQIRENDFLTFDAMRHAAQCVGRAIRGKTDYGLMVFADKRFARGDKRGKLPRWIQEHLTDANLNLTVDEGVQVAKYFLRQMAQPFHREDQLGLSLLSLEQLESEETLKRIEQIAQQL
The note with it: read-out: Kd apparent; k-562, colo 205, sk-n-be(2) and mv-4-11.
Note: in the data inactive means no Kd found up to 30 µM.

Sequence of AP2-associated protein kinase 1 (Q2M2I8 whole entry): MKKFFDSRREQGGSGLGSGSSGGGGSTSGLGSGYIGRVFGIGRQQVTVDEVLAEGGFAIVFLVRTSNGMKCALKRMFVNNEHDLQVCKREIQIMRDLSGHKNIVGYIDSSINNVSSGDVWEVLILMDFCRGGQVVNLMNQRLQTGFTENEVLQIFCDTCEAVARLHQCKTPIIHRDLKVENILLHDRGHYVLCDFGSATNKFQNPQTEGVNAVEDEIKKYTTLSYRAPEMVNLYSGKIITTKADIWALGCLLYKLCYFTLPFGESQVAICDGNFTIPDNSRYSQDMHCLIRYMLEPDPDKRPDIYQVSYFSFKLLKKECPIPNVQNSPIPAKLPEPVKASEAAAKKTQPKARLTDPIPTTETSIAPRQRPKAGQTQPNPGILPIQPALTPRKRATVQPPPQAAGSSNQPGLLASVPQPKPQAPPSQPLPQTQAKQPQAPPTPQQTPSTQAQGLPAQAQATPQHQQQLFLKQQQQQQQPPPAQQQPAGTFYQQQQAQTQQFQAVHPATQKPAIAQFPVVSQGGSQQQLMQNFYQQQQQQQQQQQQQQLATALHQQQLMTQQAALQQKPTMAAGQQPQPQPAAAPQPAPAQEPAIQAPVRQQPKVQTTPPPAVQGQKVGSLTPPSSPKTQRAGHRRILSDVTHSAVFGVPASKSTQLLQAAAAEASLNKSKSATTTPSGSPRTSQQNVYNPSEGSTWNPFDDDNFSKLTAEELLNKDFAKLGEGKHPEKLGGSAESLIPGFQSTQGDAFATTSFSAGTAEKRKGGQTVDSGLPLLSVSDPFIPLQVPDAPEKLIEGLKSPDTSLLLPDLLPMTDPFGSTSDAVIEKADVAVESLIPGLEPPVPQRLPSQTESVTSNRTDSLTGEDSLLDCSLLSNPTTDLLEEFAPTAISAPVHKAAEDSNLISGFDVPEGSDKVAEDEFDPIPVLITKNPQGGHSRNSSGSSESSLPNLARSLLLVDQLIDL
Sequence of Serine/threonine-protein kinase N1 (Q16512 whole entry): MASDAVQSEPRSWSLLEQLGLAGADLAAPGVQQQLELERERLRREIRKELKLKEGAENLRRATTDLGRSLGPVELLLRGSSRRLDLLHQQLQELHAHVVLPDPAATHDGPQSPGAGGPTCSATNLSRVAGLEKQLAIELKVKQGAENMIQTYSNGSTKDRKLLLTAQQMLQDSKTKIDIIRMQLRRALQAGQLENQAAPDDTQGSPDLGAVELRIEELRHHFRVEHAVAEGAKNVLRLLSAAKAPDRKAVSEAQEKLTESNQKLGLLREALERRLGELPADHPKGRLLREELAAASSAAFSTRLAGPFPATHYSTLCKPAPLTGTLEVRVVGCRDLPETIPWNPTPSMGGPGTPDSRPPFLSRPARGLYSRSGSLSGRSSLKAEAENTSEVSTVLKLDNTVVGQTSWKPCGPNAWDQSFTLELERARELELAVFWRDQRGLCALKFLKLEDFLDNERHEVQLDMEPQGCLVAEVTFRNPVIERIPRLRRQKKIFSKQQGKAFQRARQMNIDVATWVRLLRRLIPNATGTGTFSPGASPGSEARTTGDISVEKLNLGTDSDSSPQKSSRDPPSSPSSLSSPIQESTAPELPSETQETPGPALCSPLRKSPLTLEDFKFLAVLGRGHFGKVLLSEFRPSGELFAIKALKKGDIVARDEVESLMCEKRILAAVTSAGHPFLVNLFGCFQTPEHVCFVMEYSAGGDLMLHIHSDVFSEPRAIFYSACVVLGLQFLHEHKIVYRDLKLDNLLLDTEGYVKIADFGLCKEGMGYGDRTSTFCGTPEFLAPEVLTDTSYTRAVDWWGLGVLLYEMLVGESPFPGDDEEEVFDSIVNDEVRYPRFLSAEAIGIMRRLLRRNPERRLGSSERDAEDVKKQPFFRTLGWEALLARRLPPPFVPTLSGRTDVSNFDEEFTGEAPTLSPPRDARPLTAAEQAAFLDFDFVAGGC
Sequence of 5'-AMP-activated protein kinase catalytic subunit alpha-1 (Q13131 whole entry): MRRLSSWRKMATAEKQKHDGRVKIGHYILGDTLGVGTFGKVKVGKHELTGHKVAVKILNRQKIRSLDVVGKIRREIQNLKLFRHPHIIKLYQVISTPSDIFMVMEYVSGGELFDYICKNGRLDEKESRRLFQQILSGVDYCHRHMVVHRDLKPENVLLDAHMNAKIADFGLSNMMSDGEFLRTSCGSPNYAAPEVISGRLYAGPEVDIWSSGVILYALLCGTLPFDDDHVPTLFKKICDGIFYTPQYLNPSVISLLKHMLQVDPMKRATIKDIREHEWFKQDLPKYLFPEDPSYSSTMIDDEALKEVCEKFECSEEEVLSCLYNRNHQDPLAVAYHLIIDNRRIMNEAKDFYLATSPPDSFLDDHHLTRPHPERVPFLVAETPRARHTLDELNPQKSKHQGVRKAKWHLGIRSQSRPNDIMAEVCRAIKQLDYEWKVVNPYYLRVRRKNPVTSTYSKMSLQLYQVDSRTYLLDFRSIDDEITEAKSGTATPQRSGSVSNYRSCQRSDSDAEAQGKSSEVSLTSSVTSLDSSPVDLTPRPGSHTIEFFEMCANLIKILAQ
Sequence of Serine/threonine-protein kinase N2 (Q16513 whole entry): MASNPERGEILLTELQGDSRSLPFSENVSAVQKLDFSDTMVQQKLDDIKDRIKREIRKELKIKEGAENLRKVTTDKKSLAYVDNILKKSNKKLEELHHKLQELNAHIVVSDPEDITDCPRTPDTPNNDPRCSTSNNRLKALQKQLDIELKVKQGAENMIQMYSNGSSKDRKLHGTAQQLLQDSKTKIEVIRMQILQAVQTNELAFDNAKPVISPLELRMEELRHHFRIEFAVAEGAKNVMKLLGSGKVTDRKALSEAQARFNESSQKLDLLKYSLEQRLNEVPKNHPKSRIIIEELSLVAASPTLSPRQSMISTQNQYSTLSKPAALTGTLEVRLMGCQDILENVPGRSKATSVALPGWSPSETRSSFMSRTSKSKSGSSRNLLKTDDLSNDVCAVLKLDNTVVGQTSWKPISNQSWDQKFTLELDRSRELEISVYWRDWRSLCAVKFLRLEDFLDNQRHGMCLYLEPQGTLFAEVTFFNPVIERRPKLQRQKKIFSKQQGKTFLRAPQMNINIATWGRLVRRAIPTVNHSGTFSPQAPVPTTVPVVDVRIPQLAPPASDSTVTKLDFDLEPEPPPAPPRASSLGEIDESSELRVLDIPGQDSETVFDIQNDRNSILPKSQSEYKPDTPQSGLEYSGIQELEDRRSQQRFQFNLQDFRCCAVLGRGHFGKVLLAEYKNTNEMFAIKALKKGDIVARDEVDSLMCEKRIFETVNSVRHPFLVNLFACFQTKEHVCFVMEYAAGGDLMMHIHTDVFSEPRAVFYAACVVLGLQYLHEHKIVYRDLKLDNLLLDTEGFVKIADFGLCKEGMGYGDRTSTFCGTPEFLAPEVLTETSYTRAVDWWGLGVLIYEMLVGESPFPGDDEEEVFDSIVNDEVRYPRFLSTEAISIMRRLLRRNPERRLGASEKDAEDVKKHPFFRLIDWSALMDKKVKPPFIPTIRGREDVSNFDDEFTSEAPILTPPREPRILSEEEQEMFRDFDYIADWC
Sequence of Tyrosine-protein kinase Fer (P16591 whole entry, the tested form may be a part): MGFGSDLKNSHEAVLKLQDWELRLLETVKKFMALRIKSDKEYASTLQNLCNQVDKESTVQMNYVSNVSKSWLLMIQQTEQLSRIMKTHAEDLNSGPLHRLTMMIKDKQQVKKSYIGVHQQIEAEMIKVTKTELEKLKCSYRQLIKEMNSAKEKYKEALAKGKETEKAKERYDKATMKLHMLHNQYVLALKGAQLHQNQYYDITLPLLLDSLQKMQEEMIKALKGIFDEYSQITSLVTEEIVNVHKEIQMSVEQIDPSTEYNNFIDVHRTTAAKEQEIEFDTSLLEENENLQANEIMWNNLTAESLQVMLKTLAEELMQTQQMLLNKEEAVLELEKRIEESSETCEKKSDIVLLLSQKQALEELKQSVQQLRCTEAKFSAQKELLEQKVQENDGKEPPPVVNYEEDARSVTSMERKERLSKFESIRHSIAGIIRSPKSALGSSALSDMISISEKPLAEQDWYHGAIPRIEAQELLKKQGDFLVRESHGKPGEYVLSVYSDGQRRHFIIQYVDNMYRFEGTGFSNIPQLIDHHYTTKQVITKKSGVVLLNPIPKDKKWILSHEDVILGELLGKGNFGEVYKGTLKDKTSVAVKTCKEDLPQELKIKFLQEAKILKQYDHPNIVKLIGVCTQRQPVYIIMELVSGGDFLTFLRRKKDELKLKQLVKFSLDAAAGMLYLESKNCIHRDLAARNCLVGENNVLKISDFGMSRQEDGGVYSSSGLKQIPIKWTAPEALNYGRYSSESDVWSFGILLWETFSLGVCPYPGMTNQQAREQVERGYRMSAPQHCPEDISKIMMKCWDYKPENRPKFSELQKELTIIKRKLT
Sequence of Calcium/calmodulin-dependent protein kinase type II subunit gamma (Q13555 whole entry): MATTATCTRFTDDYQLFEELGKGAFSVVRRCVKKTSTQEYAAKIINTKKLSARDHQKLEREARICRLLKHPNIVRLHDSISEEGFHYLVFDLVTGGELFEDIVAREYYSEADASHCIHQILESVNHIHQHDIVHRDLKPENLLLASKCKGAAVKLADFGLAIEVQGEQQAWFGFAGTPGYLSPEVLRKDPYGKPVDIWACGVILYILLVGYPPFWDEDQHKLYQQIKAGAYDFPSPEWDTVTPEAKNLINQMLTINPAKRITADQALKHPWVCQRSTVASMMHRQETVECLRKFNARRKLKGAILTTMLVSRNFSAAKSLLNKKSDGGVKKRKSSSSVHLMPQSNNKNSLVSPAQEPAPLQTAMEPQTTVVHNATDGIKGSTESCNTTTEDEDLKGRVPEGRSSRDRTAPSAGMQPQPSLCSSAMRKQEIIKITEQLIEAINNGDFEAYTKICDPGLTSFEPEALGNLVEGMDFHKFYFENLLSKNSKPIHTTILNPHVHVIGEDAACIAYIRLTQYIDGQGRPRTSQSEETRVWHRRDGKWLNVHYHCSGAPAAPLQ

Consider `O=C1NC(=O)/C(=C/c2ccc3nccc(-c4ccncc4)c3c2)S1` [GSK-1059615], for which the Kd in [1] is 0.035 µM (active); in assay [2] it was > 30 µM (inactive); on Ephrin type-B receptor 6, > 30 µM (inactive); in assay [3], > 30 µM (inactive); in assay [4], > 30 µM (inactive); at LIM domain kinase 1, > 30 µM (inactive). For the same molecule, the Kd in [5], in assay [6], in assay [7], in assay [8] and in assay [9] was > 30 µM (inactive) in each case.
As to `O=c1sn(-c2cccc3ccccc23)c(=O)n1Cc1ccccc1` [TIDEGLUSIB], the Kd (in assay [1]; in [2]; at Ephrin type-B receptor 6; in assay [3]; in assay [4]; at LIM domain kinase 1) was > 30 µM (inactive) in each case. Further, the Kd in assay [5], in assay [6], in assay [7], in assay [8] and in assay [9] was > 30 µM (inactive) throughout.
For `CO[C@H]1C[C@@H]2CC[C@@H](C)[C@@](O)(O2)C(=O)C(=O)N2CCCC[C@H]2C(=O)O[C@H]([C@H](C)C[C@@H]2CC[C@@H](OCCO)[C@H](OC)C2)CC(=O)[C@H](C)/C=C(\C)[C@@H](O)[C@@H](OC)C(=O)[C@H](C)C[C@H](C)/C=C/C=C/C=C/1C` [EVEROLIMUS], the Kd (in assay [1]; in [2]; at Ephrin type-B receptor 6; in assay [3]; in [4]; at LIM domain kinase 1) was > 30 µM (inactive) throughout. Also, the Kd in assay [5], in [6], in assay [7], in assay [8] and in assay [9] was > 30 µM (inactive) in each case.
For `CN(C)C(=O)c1cc2cnc(Nc3ccc(N4CCNCC4)cn3)nc2n1C1CCCC1` [RIBOCICLIB], the Kd was > 30 µM (inactive) in [1]; 0.247 µM (active) in [2]; > 30 µM (inactive) on Ephrin type-B receptor 6; > 30 µM (inactive) in assay [3]; > 30 µM (inactive) in [4]; > 30 µM (inactive) at LIM domain kinase 1. The Kd in assay [5], in [6], in assay [7], in assay [8] and in [9] was > 30 µM (inactive) in each case.
Regarding `CC(C)Nc1cc(-c2c[nH]c(C(=O)N[C@H](CO)c3cccc(Cl)c3)c2)c(Cl)cn1` [ULIXERTINIB], the Kd (in [1]; in [2]; at Ephrin type-B receptor 6; in assay [3]; in [4]; at LIM domain kinase 1) was > 30 µM (inactive) throughout. In addition, the Kd in [5], in assay [6], in [7], in [8] and in assay [9] was > 30 µM (inactive) each time.
